{"source": "patent US5436229A", "about": "“Bisulfite adducts of arginine aldehydes” (Eli Lilly and Company, priority 1994, dated 1995)", "key": {"[1]": {"test_system": "coronary artery thrombosis", "test": "Canine Model of Coronary Artery Thrombosis", "format": "in vivo, dogs", "protocol": "Surgical preparation and instrumentation of the dogs are as described in Jackson, et al., Circulation, 82, 930-940 (1990). Mixed-breed hounds (aged 6-7 months, either sex, Hazelton-LRE, Kalamazoo, Mich., U.S.A.) are anesthetized with sodium pentobarbital (30 mg/kg intravenously, i.v.), intubated, and ventilated with room air. Tidal volume and respiratory rates are adjusted to maintain blood PO2, PCO2, and pH within normal limits. Subdermal needle electrodes are inserted for the recording of a lead II ECG.\nThe left jugular vein and common carotid artery are isolated through a left mediolateral neck incision. Arterial blood pressure (ABP) is measured continuously with a precalibrated Millar transducer (model (MPC-500, Millar Instruments, Houston, Tex., U.S.A.) inserted into the carotid artery. The jugular vein is cannulated for blood sampling during the experiment. In addition, the femoral veins of both hindlegs are cannulated for administration of test compound.\nA left thoracotomy is performed at the fifth intercostal space, and the heart is suspended in a pericardial cradle. A 1- to 2-cm segment of the left circumflex coronary artery (LCX) is isolated proximal to the first major diagonal ventricular branch. A 26-gauge needle-tipped wire anodal electrode (Teflon-coated, 30-gauge silverplated copper wire) 3-4 mm long is inserted into the LCX and placed in contact with the intimal surface of the artery (confirmed at the end of the experiment). The stimulating circuit is completed by placing the cathode in a subcutaneous (s.c.) site. An adjustable plastic occluder is placed around the LCX, over the region of the electrode. […] All hemodynamic and ECG measurements are recorded and analyzed with a data acquisition system (model M3000, Modular Instruments, Malvern, Pa. U.S.A.).\nElectrolytic injury of the intima of the LCX is produced by applying 100-μA direct current (DC) to the anode. […] Thrombus formation proceeds spontaneously until the LCX is totally occluded (determined as zero CBF and an increase in the S-T segment). […]"}, "[2]": {"test": "Index of Bioavailability (plasma TT AUC, oral vs i.v.)", "format": "in vivo", "details": "rats, oral vs i.v. bolus", "excerpt": "Assays are done in duplicate and averaged.\nEach sample population represents alternating sequential time points."}, "[3]": {"test": "Pharmacokinetic Model, oral gavage", "format": "in vivo", "details": "dogs, single 2 mg/kg oral gavage", "protocol": "Male dogs (Beagles; 18 months-2 years; 12-13 kg, Marshall Farms, North Rose, N.Y. 14516) are fasted overnight and fed Purina certified Prescription Diet (Purina Mills, St. Louis, Mo.) 240 minutes after dosing. Water is available ad libitum. The room temperature is maintained between 66°-74° F.; 45-50 percent relative humidity; and lighted from 0600-1800 hours.\nTest compound is formulated immediately prior to dosing by dissolving in sterile 0.9 percent saline to a 5 mg/ml preparation. Dogs are given a single 2 mg/kg dose of test compound by oral gavage. Blood samples (4.5 ml) are taken from the cephalic vein at 0.25, 0.5, 0.75, 1,2,3,4 and 6 hours after dosing. Samples are collected in citrated Vacutainer tubes and kept on ice prior to reduction to plasma by centrifugation. Plasma samples are derivatized with dinitrophenylhydrazine and analyzed by HPLC (Zorbax SB-C8 column) eluting with methanol/500 mM sodium acetate adjusted to pH7 with phosphoric acid (60:40, v/v). Plasma concentration of test compound is recorded and used to calculate the pharmacokinetic parameters: elimination rate constant, Ke; total clearance, Clt; volume of distribution, VD; time of maximum plasma test compound concentration, Tmax; maximum concentration of test compound of Tmax, Cmax; plasma half-life, t0.5; and area under the curve, A.U.C.; fraction of test compound absorbed, F."}, "template bleeding time": {"test_system": "template bleeding time", "test": "Template Bleeding Time assay", "format": "in vivo, dogs", "details": "0.25, 0.50 and 1.0 mg/kg.hr, over a 240 minute time", "protocol": "Whole blood cell counts, hemoglobin, and hematocrit values are determined on a 40-μl sample of citrated (3.8 percent) blood (1 part citrate:9 parts blood) with a hematology analyzer (Cell-Dyn 900, Sequoia-Turner. Mount View, Calif., U.S.A.). Gingival template bleeding times are determined with a Simplate II bleeding time device (Organon Teknika Durham, N.C., U.S.A.). The device is used to make 2 horizontal incisions in the gingiva of either the upper or lower left jaw of the dog. Each incision is 3 mm wide×2 mm deep. The incisions are made, and a stopwatch is used to determine how long bleeding occurs. A cotton swab is used to soak up the blood as it oozes from the incision. Template bleeding time is the time from incision to stoppage of bleeding. Bleeding times are taken just before administration of test compound (0 min), 60 min into infusion, at conclusion of administration of the test compound (120 min), and at the end of the experiment.\nAll data are analyzed by one-way analysis of variance (ANOVA) followed by Student-Neuman-Kuels post hoc t test to determine the level of significance. Repeated-measures ANOVA are used to determine significant differences between time points during the experiments. Values are determined to be statistically different at least at the level of p<0.05. All values are mean±SEM. […]"}, "human thrombin": {"target": "human thrombin (Homo sapiens, UniProt P00734)", "test": "Thrombin amidase inhibition (Kass), chromogenic substrate", "format": "biochemical", "summary_of_the_method": "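Kass, in liter per mole, was averaged over several compound concentrations, using free thrombin from a rate standard curve and free inhibitor as added minus bound. Hydrolysis of chromogenic substrate (0.25 mg/ml solution) was monitored at 405 nm with human thrombin (8 NIH units/ml solution) in Tris-NaCl buffer pH 7.4, compound in 50% aqueous methanol.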"}, "[4]": {"target": "T1, tissue plasminogen activator (t-PA) (Homo sapiens, UniProt P00750)", "T1 construct": "purchased American Diagnostica, Greenwich, Conn", "T1 sequence (P00750 36-562)": "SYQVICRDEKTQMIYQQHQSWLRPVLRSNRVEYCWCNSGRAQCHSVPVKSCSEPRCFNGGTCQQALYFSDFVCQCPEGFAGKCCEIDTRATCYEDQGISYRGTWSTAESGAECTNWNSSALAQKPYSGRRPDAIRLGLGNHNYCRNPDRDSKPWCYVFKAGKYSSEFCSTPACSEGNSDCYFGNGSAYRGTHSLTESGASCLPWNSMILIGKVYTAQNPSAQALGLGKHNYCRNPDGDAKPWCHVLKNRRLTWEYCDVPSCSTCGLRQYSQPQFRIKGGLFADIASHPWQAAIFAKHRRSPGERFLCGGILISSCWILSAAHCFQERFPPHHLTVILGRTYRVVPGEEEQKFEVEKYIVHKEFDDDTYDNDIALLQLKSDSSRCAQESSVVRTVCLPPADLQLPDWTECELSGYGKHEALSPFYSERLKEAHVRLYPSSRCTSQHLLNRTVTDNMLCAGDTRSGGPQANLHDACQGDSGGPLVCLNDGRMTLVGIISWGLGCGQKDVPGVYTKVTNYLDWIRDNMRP", "test": "Serine protease inhibition (Kass), t-PA", "format": "biochemical"}, "human plasma [5]": {"test_system": "human plasma", "test": "Human plasma anticoagulation, activated partial thromboplastin time (APTT)", "format": "biochemical", "summary_of_the_method": "(§1)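 Compounds added across a wide concentration range to human plasma; APTT, PT and TT clotting times measured on a coagulation instrument, bovine thrombin used for plasma assays. Concentration doubling clotting time estimated by linear extrapolation.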"}, "Human plasmin": {"target": "T2, Human plasmin (Homo sapiens, UniProt P00747)", "T2 construct": "Human plasmin is purchased from Boehringer Mannheim; purchased Boehringer Mannheim, Indianapolis, Ind", "T2 sequence (P00747 581-810 limits assumed)": "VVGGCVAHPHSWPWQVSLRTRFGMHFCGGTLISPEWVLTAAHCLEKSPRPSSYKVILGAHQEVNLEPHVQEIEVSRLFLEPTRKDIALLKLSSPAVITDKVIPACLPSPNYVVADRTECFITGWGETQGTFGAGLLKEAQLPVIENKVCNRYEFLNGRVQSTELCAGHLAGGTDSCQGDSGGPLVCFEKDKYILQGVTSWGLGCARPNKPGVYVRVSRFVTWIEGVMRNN", "T2 sequence (P00747 97-580 partner limits assumed)": "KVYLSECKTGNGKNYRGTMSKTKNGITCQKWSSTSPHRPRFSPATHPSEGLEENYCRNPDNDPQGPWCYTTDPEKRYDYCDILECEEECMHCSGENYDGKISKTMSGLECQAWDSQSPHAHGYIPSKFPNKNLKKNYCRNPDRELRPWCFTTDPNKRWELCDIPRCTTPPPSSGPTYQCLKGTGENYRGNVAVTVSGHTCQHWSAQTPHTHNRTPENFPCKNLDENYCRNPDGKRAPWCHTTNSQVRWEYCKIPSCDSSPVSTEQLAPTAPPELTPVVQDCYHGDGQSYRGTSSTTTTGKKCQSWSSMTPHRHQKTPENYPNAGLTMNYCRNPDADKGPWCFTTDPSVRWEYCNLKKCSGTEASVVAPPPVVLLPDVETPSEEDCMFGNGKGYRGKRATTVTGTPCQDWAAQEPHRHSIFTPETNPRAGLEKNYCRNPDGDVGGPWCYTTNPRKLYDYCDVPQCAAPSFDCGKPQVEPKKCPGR", "test": "Serine protease inhibition (Kass), plasmin", "format": "biochemical", "summary_of_the_method": "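Kass values come from the thrombin chromogenic procedure applied to fibrinolytic proteases. t-PA (nt-PA single chain, or mt-PA6) paired with substrate H-D-Ile-Pro-Arg-p-nitroanilide; human plasmin paired with H-D-Val-Leu-Lys-p-nitroanilide.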"}, "human plasma [6]": {"test_system": "human plasma", "test": "Human plasma anticoagulation, prothrombin time (PT)", "format": "biochemical", "summary_of_the_method": "as §1"}, "factor Xa": {"target": "T3, factor Xa (Homo sapiens, UniProt P00742)", "T3 construct": "Human factors X, Xa, IXa, XIa, and XIIa are purchased from Enzyme Research Laboratories; purchased Enzyme Research Laboratories, South Bend, Ind", "T3 sequence (P00742 235-488 limits assumed)": "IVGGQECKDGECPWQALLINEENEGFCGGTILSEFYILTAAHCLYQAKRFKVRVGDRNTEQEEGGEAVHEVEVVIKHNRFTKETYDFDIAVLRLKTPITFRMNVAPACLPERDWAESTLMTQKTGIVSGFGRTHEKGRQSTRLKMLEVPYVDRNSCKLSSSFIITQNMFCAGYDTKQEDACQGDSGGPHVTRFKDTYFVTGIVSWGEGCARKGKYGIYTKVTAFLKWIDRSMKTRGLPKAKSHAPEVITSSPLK", "T3 sequence (P00742 41-179 partner limits assumed)": "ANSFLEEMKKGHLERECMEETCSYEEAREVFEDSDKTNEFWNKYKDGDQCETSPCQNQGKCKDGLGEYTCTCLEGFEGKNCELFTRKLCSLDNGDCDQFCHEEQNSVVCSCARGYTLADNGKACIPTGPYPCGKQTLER", "test": "Serine protease inhibition (Kass), factor Xa", "format": "biochemical", "summary_of_the_method": "(§2)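 Chromogenic p-nitroanilide substrate assays run as for human thrombin; trypsin with N-Benzoyl-Phe-Val-Arg-p-nitroanilide, human factor Xa with N-Benzoyl-Ile-Glu-Gly-Arg-p-nitroanilide. Values are association constants (Kass).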"}, "human plasma [7]": {"test_system": "human plasma", "test": "Human plasma anticoagulation, thrombin time (TT)", "format": "biochemical", "summary_of_the_method": "as §1"}, "Bovine trypsin": {"target": "T4, Bovine trypsin (Bos taurus, UniProt P00760)", "T4 construct": "Bovine trypsin is purchased from Worthington Biochemicals; purchased Worthington Biochemicals, Freehold, N.J", "T4 sequence (P00760 24-246)": "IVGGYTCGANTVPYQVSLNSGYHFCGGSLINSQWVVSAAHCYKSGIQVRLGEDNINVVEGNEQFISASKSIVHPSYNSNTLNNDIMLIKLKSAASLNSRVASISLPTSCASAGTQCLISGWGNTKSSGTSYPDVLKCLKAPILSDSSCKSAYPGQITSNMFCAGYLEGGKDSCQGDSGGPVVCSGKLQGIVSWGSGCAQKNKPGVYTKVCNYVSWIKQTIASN", "test": "Serine protease inhibition (Kass), trypsin", "format": "biochemical", "summary_of_the_method": "as §2"}}, "note": "Non-standard residues stand in square brackets, D forms with d. Residues, ends and D or L forms follow the SMILES beside them. dPip = O=C(O)[C@H]1CCCCN1"}
{"smiles": "Cl.Cl.N=C(N)NCCC[C@@H](C=O)NC(=O)[C@@H]1CCCN1C(=O)[C@H]1CCCCN1", "note": "[Example 1, D-Homoprolinyl-L-Prolinyl-L-Arginine Aldehyde Dihydrochloride] (H-[dPip]-Pro-Arg-aldehyde)", "values": [{"measurement": "Time to Occlusion", "setting": "[1]; dose 0.25 mg/kg.hr", "result": 60, "unit": "min"}, {"measurement": "Time to Occlusion", "setting": "[1]; dose 0.50 mg/kg.hr", "result": 150, "unit": "min"}, {"measurement": "Time to Occlusion", "setting": "[1]; dose 1.00 mg/kg.hr", "result": "> 225", "unit": "min"}, {"measurement": "Percent Relative Activity (Index of Bioavailability)", "setting": "[2]", "result": 38, "unit": "%"}, {"measurement": "A.U.C. o-infinity", "setting": "[3]", "result": 4651, "unit": "ng·h/mL"}, {"measurement": "Clt/F", "setting": "[3]", "result": 0.437, "unit": "L/h/kg"}, {"measurement": "Cmax", "setting": "[3]", "result": 1676, "unit": "ng/mL"}, {"measurement": "Ke", "setting": "[3]", "result": 0.0104, "unit": "min.-1"}, {"measurement": "Tmax", "setting": "[3]", "result": "1 to 2", "unit": "h"}, {"measurement": "VD/F", "setting": "[3]", "result": 0.729, "unit": "L/kg"}, {"measurement": "t0.5", "setting": "[3]", "result": 67, "unit": "min"}, {"measurement": "effect on template bleeding time", "setting": "template bleeding time", "result": "no significant effect on template bleeding time"}, {"measurement": "Kass Human Thrombin", "setting": "human thrombin", "result": 46, "unit": "L/mol × 10^6"}, {"measurement": "Kass t-PA", "setting": "[4]", "result": 0.02, "unit": "L/mol × 10^6"}]}
{"smiles": "CN(C)S(=O)(=O)N[C@H](Cc1ccccc1)C(=O)N1CCC[C@H]1C(=O)N[C@H](C=O)CCCNC(=N)N.Cl", "note": "[Example 56, N-(dimethylaminosulfonyl)-D-phenylalanyl-L-Prolinyl-L-Arginine Aldehyde Hydrochloride]", "values": [{"measurement": "2 × Clotting time APTT", "setting": "human plasma [5]", "result": 360, "unit": "ng/mL"}, {"measurement": "Kass Plasmin", "setting": "Human plasmin", "result": 21, "unit": "L/mol × 10^6"}, {"measurement": "Percent Relative Activity (Index of Bioavailability)", "setting": "[2]", "result": 26, "unit": "%"}, {"measurement": "2 × Clotting time PT", "setting": "human plasma [6]", "result": 480, "unit": "ng/mL"}, {"measurement": "Kass Xa", "setting": "factor Xa", "result": 3.9, "unit": "L/mol × 10^6"}, {"measurement": "2 × Clotting time TT", "setting": "human plasma [7]", "result": 46, "unit": "ng/mL"}, {"measurement": "Kass Human Thrombin", "setting": "human thrombin", "result": 300, "unit": "L/mol × 10^6"}, {"measurement": "Kass Trypsin", "setting": "Bovine trypsin", "result": 160, "unit": "L/mol × 10^6"}, {"measurement": "inhibition at 13 µg/mL", "setting": "[4]; at 13 μg/mL, read-out: inhib. of t-PA", "result": 100, "unit": "%"}]}
{"smiles": "CCCCS(=O)(=O)N[C@H](Cc1ccccc1)C(=O)N1CCC[C@H]1C(=O)N[C@H](C=O)CCCNC(=N)N.Cl", "note": "[Example 54, N-(n-butylsulfonyl)-D-phenylalanyl-L-Prolinyl-L-Arginine Aldehyde Hydrochloride]", "values": [{"measurement": "2 × Clotting time APTT", "setting": "human plasma [5]", "result": 300, "unit": "ng/mL"}, {"measurement": "Kass Plasmin", "setting": "Human plasmin", "result": 27, "unit": "L/mol × 10^6"}, {"measurement": "Percent Relative Activity (Index of Bioavailability)", "setting": "[2]", "result": 18, "unit": "%"}, {"measurement": "2 × Clotting time PT", "setting": "human plasma [6]", "result": 700, "unit": "ng/mL"}, {"measurement": "Kass Xa", "setting": "factor Xa", "result": 8.3, "unit": "L/mol × 10^6"}, {"measurement": "2 × Clotting time TT", "setting": "human plasma [7]", "result": 18, "unit": "ng/mL"}, {"measurement": "Kass Human Thrombin", "setting": "human thrombin", "result": 470, "unit": "L/mol × 10^6"}, {"measurement": "Kass Trypsin", "setting": "Bovine trypsin", "result": 230, "unit": "L/mol × 10^6"}, {"measurement": "Kass t-PA", "setting": "[4]", "result": 0.83, "unit": "L/mol × 10^6"}]}
{"smiles": "Cl.N=C(N)NCCC[C@@H](C=O)NC(=O)[C@@H]1CCCN1C(=O)[C@@H](Cc1ccccc1)NS(=O)(=O)c1ccccc1", "note": "[Example 57, N-(phenylsulfonyl)-D-phenylalanyl-L-Prolinyl-L-Arginine Aldehyde Hydrochloride]", "values": [{"measurement": "2 × Clotting time APTT", "setting": "human plasma [5]", "result": 450, "unit": "ng/mL"}, {"measurement": "Kass Plasmin", "setting": "Human plasmin", "result": 19, "unit": "L/mol × 10^6"}, {"measurement": "Percent Relative Activity (Index of Bioavailability)", "setting": "[2]", "result": 3, "unit": "%"}, {"measurement": "2 × Clotting time PT", "setting": "human plasma [6]", "result": 930, "unit": "ng/mL"}, {"measurement": "Kass Xa", "setting": "factor Xa", "result": 3.6, "unit": "L/mol × 10^6"}, {"measurement": "2 × Clotting time TT", "setting": "human plasma [7]", "result": 14, "unit": "ng/mL"}, {"measurement": "Kass Human Thrombin", "setting": "human thrombin", "result": 270, "unit": "L/mol × 10^6"}, {"measurement": "Kass Trypsin", "setting": "Bovine trypsin", "result": 180, "unit": "L/mol × 10^6"}, {"measurement": "Kass t-PA", "setting": "[4]", "result": 2.3, "unit": "L/mol × 10^6"}]}
